The target in assay [1] is T1, wild-type human androgen receptor (Homo sapiens, UniProt P10275).
T1 construct: expressed in transfected cells
T1 sequence (P10275 1-920): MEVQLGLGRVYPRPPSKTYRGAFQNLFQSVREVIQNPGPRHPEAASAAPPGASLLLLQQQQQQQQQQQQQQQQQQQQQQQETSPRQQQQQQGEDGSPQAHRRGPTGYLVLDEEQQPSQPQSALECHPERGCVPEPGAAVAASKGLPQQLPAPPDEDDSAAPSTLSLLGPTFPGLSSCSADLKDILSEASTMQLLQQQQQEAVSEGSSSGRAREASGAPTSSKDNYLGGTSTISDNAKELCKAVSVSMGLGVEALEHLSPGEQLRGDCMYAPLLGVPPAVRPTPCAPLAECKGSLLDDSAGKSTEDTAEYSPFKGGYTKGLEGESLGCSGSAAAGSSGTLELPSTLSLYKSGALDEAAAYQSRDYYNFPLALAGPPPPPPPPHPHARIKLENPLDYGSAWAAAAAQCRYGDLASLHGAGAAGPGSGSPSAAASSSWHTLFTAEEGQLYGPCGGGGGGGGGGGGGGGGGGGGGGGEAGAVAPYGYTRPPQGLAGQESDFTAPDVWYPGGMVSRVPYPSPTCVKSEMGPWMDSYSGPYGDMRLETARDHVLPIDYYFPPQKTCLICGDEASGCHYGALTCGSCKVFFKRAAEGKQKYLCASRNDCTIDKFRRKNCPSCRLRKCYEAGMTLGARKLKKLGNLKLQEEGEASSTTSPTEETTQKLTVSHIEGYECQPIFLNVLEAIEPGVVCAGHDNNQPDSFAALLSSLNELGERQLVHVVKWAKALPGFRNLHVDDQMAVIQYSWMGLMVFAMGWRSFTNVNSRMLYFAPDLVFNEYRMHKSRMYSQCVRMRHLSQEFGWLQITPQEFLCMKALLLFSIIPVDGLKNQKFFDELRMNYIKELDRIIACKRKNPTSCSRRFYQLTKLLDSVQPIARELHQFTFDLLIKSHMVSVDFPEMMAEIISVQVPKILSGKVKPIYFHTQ
In words: Cell-based transactivation assay for wild-type human androgen receptor (PC-3 cells, MMTV-luciferase reporter).
Experimental: Cell-Based Transactivation Assay for Wild-Type Human Androgen Receptor
PC-3 cells (Kaighn et al., Invest. Urol. 17:16-23, 1979) stably transfected with the human androgen receptor (Swiss-Prot Acc. No. P10275, Entry Version 159, Sequence Version 2) and a reporter plasmid based on pGL4.14 (#E6691, Promega Corporation, Madison, Wis., USA) containing the MMTV promoter (Cato et al., EMBO J. 6:363-8, 1987) were used. They were grown in 5% charcoal-stripped medium and seeded at a concentration of 1000 cells per well in a 384-well plate. For determination of antagonistic activity, the plate additionally contained the compound to be tested at a concentration range varying from 5.12×10^−12 to 1×10^−5 M. The assay was performed in presence of 1×10^−10 R1881 (also known as methyltrienolone). After overnight incubation at 37° C. in a 5% CO2 atmosphere, 15 μl of Steady Glo Lysis and Detection reagent (Steady Glo Luciferase assay system E2550 from Promega Corporation. Madison, Wis., USA) were added. IC50 was calculated for anti-androgenic activity as well as percentage inhibition in presence of 2 μM compound in comparison to non-stimulated luciferase signal. Agonistic activity was determined using the same concentration range of compound in the absence of R1881 by measuring Luciferase activity as above. EC50 was calculated for androgenic activity. Assay/read plates were used (Polystyrol; 384, NV-white cell culture plates; Perkin Elmer).

Assay [2] concerns the target T2, human androgen receptor W741L mutant (Homo sapiens, UniProt P10275, W742L).
T2 construct: expressed in transfected cells; host or cells: PC-3 cells, transient transfection with a pSG5-derived plasmid
T2 sequence (P10275 1-920 W742L): T1 sequence (P10275 1-920) with W742L
Put plainly: Cell-based transactivation assay for human androgen receptor mutant W741L.
Experimental: Cell-Based Transactivation Assay for Human Androgen Receptor Mutant W741L or W741C
PC-3 cells (Kaighn et al., Invest. Urol. 17:16-23, 1979) were grown in 5% charcoal-stripped medium and seeded at a concentration of 10000 cells per well in a 96-well plate. They were transiently transfected with a pSG5-derived plasmid (#216201 from Stratagene, La Jolla, Calif., USA) coding for the human androgen receptor W741L or W741C mutant Mara et al., Cancer Research, 63: 149-153, 2003) and an MMTV-Luciferase reporter plasmid based on pGL4.14 14 (#E6691, Promega Corporation, Madison, Wis., USA). The compound to be tested was added at a concentration range varying from 1×10^−9 to 1×10 M together with 1×10^−10 R1881. After 24 h incubation at 37° C. in a 5% CO2 atmosphere, 100 μl of Steady Glo Lysis and Detection reagent (Steady Glo Luciferase assay system E2550 from Promega Corporation. Madison, Wis., USA) were added. Antagonistic activity was determined by measuring Luciferase activity in a Victor 3 Luminometer (PerkinElmer, Waltham, Mass., USA) using the Steady Glo Luciferase Assay (E2550, Promega). IC50 values were calculated for anti-androgenic activity.

Another assay has as its system VCaP cells. Put plainly: Proliferation assay with VCaP cells. It is filed as cell-based. The settings on record: Homo sapiens, 168 h, R1881 (1×10^−10) stimulated growth, day 7, read-out: Antiproliferative activity VCaP IC50. As for the experimental part: Proliferation Assay with VCaP Cells
VCaP cells ((Korenchuk et al., In Vivo 15: 163-168, 2001)) were seeded at 16 000 cells/well in 96-well plates in DMEM (F0445, Biochrom AG, Berlin, Germany) with phenol red supplemented with 10% charcoal-stripped serum. After 1 day, the cells were treated with R1881 (1×10^−10) and compound (day 0). Cell number was determined by Alamar Blue (DAL1100, Invitrogen, Life Technologies, Lohne, Germany) staining (2.5 h) at day 0 and day 7. Fluorescence was determined in Victor3 (Excitation 530 nm; emission 590 nm). Stimulated growth was defined as the signal measured at day 7 for cells treated only with R1881. Basal level was defined as the signal measured at day 7 for cells grown without R1881.

Numbering of substitutions follows the chain as printed.

Consider 17 molecules from patent US20120251551A1, “Substituted (Heteroarylmethyl)thiohydantoins” (BAYER PHARMA AKTIENGESELLSCHAFT, priority 2009, published 2012).

In turn, `COCCOc1ccc(CN2C(=S)N(c3ccc(C#N)c(C(F)(F)F)c3)C(=O)C2(C)C)cn1` [Example 11, 4-(3-{[6-(2-Methoxyethoxy)pyridin-3-yl]methyl}-4,4-dimethyl-5-oxo-2-thioxoimidazolidin-1-yl)-2-(trifluoromethyl)benzonitrile] gave an EC50 in assay [1] of more than 10 µM.

`CN1CCCN(c2ccc(CN3C(=S)N(c4ccc(C#N)c(C(F)(F)F)c4)C(=O)C3(C)C)cn2)CC1` [Example 12, 4-(4,4-Dimethyl-3-{[6-(4-methyl-1,4-diazepan-1-yl)pyridin-3-yl]methyl}-5-oxo-2-thioxoimidazolidin-1-yl)-2-(trifluoromethyl)benzonitrile] yielded an EC50 in assay [1] of more than 10 µM.

Regarding `CC1(C)C(=O)N(c2ccc(C#N)c(C(F)(F)F)c2)C(=S)N1Cc1ccc(N2CCC(CO)CC2)nc1` [Example 14, 4-[3-({6-[4-(Hydroxymethyl)piperidin-1-yl]pyridin-3-yl}methyl)-4,4-dimethyl-5-oxo-2-thioxoimidazolidin-1-yl]-2-(trifluoromethyl)benzonitrile], a half-maximal response in assay [1] (EC50) required 6 µM. Take `CC1(C)C(=O)N(c2ccc(C#N)c(C(F)(F)F)c2)C(=S)N1Cc1ccc(N2CCNC2=O)nc1` [Example 25, 4-(4,4-Dimethyl-5-oxo-3-{[6-(2-oxoimidazolidin-1-yl)pyridin-3-yl]methyl}-2-thioxoimidazolidin-1-yl)-2-(trifluoromethyl)benzonitrile]: in assay [2], the IC50 amounted to 0.246 µM. The EC50 in assay [1] is more than 10 µM. In the case of `CC1(C)C(=O)N(c2ccc(C#N)c(C(F)(F)F)c2)C(=S)N1Cc1ccc(N=[S@](C)(=O)c2ccccc2)nc1` [Example 26, (R)-4-{4,4-Dimethyl-3-[(6-{[methyl(oxido)phenyl-λ^6-sulfanylidene]amino}pyridin-3-yl)methyl]-5-oxo-2-thioxoimidazolidin-1-yl}-2-(trifluoromethyl)benzonitrile], in assay [2], it took 0.211 µM to reach half-maximal inhibition (IC50). The EC50 in assay [1] was more than 10 µM. For the molecule `Cc1ccnn1-c1ccc(CN2C(=S)N(c3ccc(C#N)c(C(F)(F)F)c3)C(=O)C2(C)C)cn1` [Example 27, 4-(4,4-Dimethyl-3-{[6-(5-methyl-1H-pyrazol-1-yl)pyridin-3-yl]methyl}-5-oxo-2-thioxoimidazolidin-1-yl)-2-(trifluoromethyl)benzonitrile], the EC50 in assay [1] was more than 10 µM. On to `CC1(C)C(=O)N(c2ccc(C#N)c(C(F)(F)F)c2)C(=S)N1Cc1ccc(OCC(F)(F)CO)nc1` [Example 28, 4-(3-{[6-(2,2-Difluoro-3-hydroxypropoxy)pyridin-3-yl]methyl}-4,4-dimethyl-5-oxo-2-thioxoimidazolidin-1-yl)-2-(trifluoromethyl)benzonitrile], for which the concentration giving a half-maximal response (EC50) in assay [1] was more than 10 µM. For `CC1(C)C(=O)N(c2ccc(C#N)c(C(F)(F)F)c2)C(=S)N1Cc1ccc(-n2ccnn2)nc1` [Example 29, 4-(4,4-Dimethyl-5-oxo-2-thioxo-3-{[6-(1H-1,2,3-triazol-1-yl)pyridin-3-yl]methyl}imidazolidin-1-yl)-2-(trifluoromethyl)benzonitrile], in assay [1], the EC50 was more than 10 µM. Take `CC1(C)C(=O)N(c2ccc(C#N)c(C(F)(F)F)c2)C(=S)N1Cc1ccc(-n2nccn2)nc1` [Example 30, 4-(4,4-Dimethyl-5-oxo-2-thioxo-3-{[6-(2H-1,2,3-triazol-2-yl)pyridin-3-yl]methyl}imidazolidin-1-yl)-2-(trifluoromethyl)benzonitrile]: in assay [1], the EC50 was more than 10 µM.

On to `CC1(C)C(=O)N(c2ccc(C#N)c(C(F)(F)F)c2)C(=S)N1Cc1ccc(-n2cnnn2)nc1` [Example 31, 4-(4,4-Dimethyl-5-oxo-3-{[6-(1H-tetrazol-1-yl)pyridin-3-yl]methyl}-2-thioxoimidazolidin-1-yl)-2-(trifluoromethyl)benzonitrile], for which the 50% inhibitory concentration (IC50) in assay [2] is not below 1 µM. In assay [1], the half-maximal effective concentration (EC50) was more than 10 µM. In assay [1], `CC1(C)C(=O)N(c2ccc(C#N)c(C(F)(F)F)c2)C(=S)N1Cc1ccc(-n2cnc(Cl)c2Cl)nc1` [Example 32, 4-(3-{[6-(4,5-Dichloro-1H-imidazol-1-yl)pyridin-3-yl]methyl}-4,4-dimethyl-5-oxo-2-thioxoimidazolidin-1-yl)-2-(trifluoromethyl)benzonitrile] displayed an EC50 of more than 10 µM.

On to `CC1(C)C(=O)N(c2ccc(C#N)c(C(F)(F)F)c2)C(=S)N1Cc1ccc(-n2cnc(C(F)(F)F)n2)nc1` [Example 33, 4-[4,4-Dimethyl-5-oxo-2-thioxo-3-({6-[3-(trifluoromethyl)-1H-1,2,4-triazol-1-yl]pyridin-3-yl}methyl)imidazolidin-1-yl]-2-(trifluoromethyl)benzonitrile], for which, in assay [1], the EC50 is more than 10 µM. For the molecule `CC1(C)C(=O)N(c2ccc(C#N)c(C(F)(F)F)c2)C(=S)N1Cc1ccc(-n2cnc(CO)c2)nc1` [Example 34, 4-[3-({6-[4-(Hydroxymethyl)-1H-imidazol-1-yl]pyridin-3-yl}methyl)-4,4-dimethyl-5-oxo-2-thioxoimidazolidin-1-yl]-2-(trifluoromethyl)benzonitrile], the IC50 in assay [2] was determined as 0.259 µM; with VCaP cells, 0.331 µM. The EC50 in assay [1] is more than 10 µM. In assay [2], `CC1(C)C(=O)N(c2ccc(C#N)c(C(F)(F)F)c2)C(=S)N1Cc1ccc(OCCN2CCNC2=O)nc1` [Example 35, 4-[4,4-Dimethyl-5-oxo-3-({6-[2-(2-oxoimidazolidin-1-yl)ethoxy]pyridin-3-yl}methyl)-2-thioxoimidazolidin-1-yl]-2-(trifluoromethyl)benzonitrile] came in with a concentration for half-maximal inhibition (IC50) of 0.0446 µM. The EC50 in assay [1] is more than 10 µM.

`CC1(C)C(=O)N(c2ccc(C#N)c(C(F)(F)F)c2)C(=S)N1Cc1ccc(N2CCS(=O)(=NC#N)CC2)nc1` [Example 36, {4-[5-({3-[4-Cyano-3-(trifluoromethyl)phenyl]-5,5-dimethyl-4-oxo-2-thioxoimidazolidin-1-yl}methyl)pyridin-2-yl]-1-oxido-1λ^6,4-thiomorpholin-1-ylidene}cyanamide]: the values for the concentration for half-maximal inhibition (IC50) (in assay [2]; in the assay on VCaP cells) were not below 1 µM and 0.329 µM, respectively. In addition, in assay [1], the EC50 was more than 10 µM. As to `Cc1nc(OCC(C)(C)O)ccc1CN1C(=S)N(c2ccc(C#N)c(C(F)(F)F)c2)C(=O)C1(C)C` [Example 37, 4-(3-{[6-(2-Hydroxy-2-methylpropoxy)-2-methylpyridin-3-yl]methyl}-4,4-dimethyl-5-oxo-2-thioxoimidazolidin-1-yl)-2-(trifluoromethyl)benzonitrile], the figures for the IC50 (in assay [2]; in the assay on VCaP cells) were 0.241 µM and 0.323 µM, respectively. For the same molecule, the EC50 in assay [1] is more than 10 µM. In assay [2], `Cc1nnnn1-c1ccc(CN2C(=S)N(c3ccc(C#N)c(C(F)(F)F)c3)C(=O)C2(C)C)cn1` [Example 38, 4-(4,4-Dimethyl-3-{[6-(5-methyl-1H-tetrazol-1-yl)pyridin-3-yl]methyl}-5-oxo-2-thioxoimidazolidin-1-yl)-2-(trifluoromethyl)benzonitrile] displayed an IC50 of 0.366 µM. The molecule further showed a half-maximal effective concentration (EC50) in assay [1] of more than 10 µM.

A word on the EC50: it is the concentration at which the effect is half-maximal. High values mean a less potent agent, low ones a more potent agent. What is called IC50 is the concentration that gives 50% inhibition.
